Several values for one entry are separate records, joined by “and”; a condition that tells them apart may be missing. Equal values may be shown once. Inconclusive results and toxic doses are left out. Cut-off read from the data, not from the text of the source: active = T/C of 150% or more; inactive = T/C below 125%.
System: L1210 leukemia ip in BDF1 mice, survival T/C
Experiment: NCI In Vivo Anticancer Drug Screen. Data for tumor model L1210 Leukemia (intraperitoneal) in B6D2F1 (BDF1) mice
Settings: endpoint: mean survival time, higher = longer survival
In short: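 Transplantable tumor model; survival measured in treated vs vehicle control mice. Value = treated/control.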

[1] = dose: 100.0 mg/kg/injection, schedule: Q01DX001 (ip), vehicle: saline
[2] = dose: 100.0 mg/kg/injection, schedule: Q04DX003 (ip), vehicle: saline
[3] = dose: 200.0 mg/kg/injection, schedule: Q01DX001 (ip), vehicle: saline
[4] = dose: 400.0 mg/kg/injection, schedule: Q01DX001 (ip), vehicle: saline
[5] = dose: 400.0 mg/kg/injection, schedule: Q01DX009 (ip), vehicle: saline
[6] = dose: 100.0 mg/kg/injection, schedule: Q01DX009 (ip), vehicle: Klucel (hydroxypropylcellulose) (HPC)
[7] = dose: 200.0 mg/kg/injection, schedule: Q01DX009 (ip), vehicle: Klucel (hydroxypropylcellulose) (HPC)
[8] = dose: 400.0 mg/kg/injection, schedule: Q01DX009 (ip), vehicle: Klucel (hydroxypropylcellulose) (HPC)
[9] = dose: 100.0 mg/kg/injection, schedule: Q01DX009 (ip), vehicle: saline
[10] = dose: 200.0 mg/kg/injection, schedule: Q01DX009 (ip), vehicle: saline
[11] = dose: 200.0 mg/kg/injection, schedule: Q04DX003 (ip), vehicle: saline
[12] = dose: 400.0 mg/kg/injection, schedule: Q04DX003 (ip), vehicle: saline
[13] = dose: 100.0 mg/kg/injection, schedule: Q04DX002 (ip), vehicle: Klucel (hydroxypropylcellulose) (HPC)
[14] = dose: 200.0 mg/kg/injection, schedule: Q04DX002 (ip), vehicle: Klucel (hydroxypropylcellulose) (HPC)
[15] = dose: 400.0 mg/kg/injection, schedule: Q04DX002 (ip), vehicle: Klucel (hydroxypropylcellulose) (HPC)
[16] = dose: 50.0 mg/kg/injection, schedule: Q01DX009 (ip), vehicle: saline with Tween-80
[17] = dose: 100.0 mg/kg/injection, schedule: Q01DX009 (ip), vehicle: saline with Tween-80
[18] = dose: 200.0 mg/kg/injection, schedule: Q01DX009 (ip), vehicle: saline with Tween-80

Measured: T/C

CS(=O)(=O)OCCC(=O)NCCCCNC(=O)CCOS(C)(=O)=O
inactive: [1] 104 % of control | [2] 115 % of control | [3] 117 % of control | dose: 264.0 mg/kg/injection, schedule: Q01DX001 (ip), vehicle: saline 103 % of control and 121 % of control | dose: 264.0 mg/kg/injection, schedule: Q01DX009 (ip), vehicle: saline 113 % of control | [4] 97 % of control | dose: 400.0 mg/kg/injection, schedule: Q01DX009 (ip), vehicle: saline with Tween-80 122 % of control | [5] 112 % of control

CC(=O)Nc1ccc(NC(=O)c2cccc(F)c2)cc1
inactive: [6] 86 % of control | [7] 102 % of control | [8] 91 % of control

O=C(N/N=C/c1ccccc1Cl)C(O)C(O)C(O)C(O)CO (configuration not stated)
inactive: dose: 100.0 mg/kg/injection, schedule: Q04DX002 (ip), vehicle: saline with Tween-80 112 % of control | dose: 200.0 mg/kg/injection, schedule: Q04DX002 (ip), vehicle: saline with Tween-80 94 % of control | dose: 400.0 mg/kg/injection, schedule: Q04DX002 (ip), vehicle: saline with Tween-80 94 % of control

CCOP(=O)(OCC)C(O)c1cnc(SC)nc1N (configuration not stated)
inactive: [9] 104 % of control | [2] 102 % of control | [10] 100 % of control | [11] 100 % of control | [5] 105 % of control | [12] 98 % of control

CC(C)[O][In]([O]C(C)C)[O]C(C)C
inactive: dose: 50.0 mg/kg/injection, schedule: Q04DX003 (ip), vehicle: saline with Tween-80 96 % of control | dose: 100.0 mg/kg/injection, schedule: Q04DX003 (ip), vehicle: saline with Tween-80 99 % of control | dose: 200.0 mg/kg/injection, schedule: Q04DX003 (ip), vehicle: saline with Tween-80 91 % of control | dose: 400.0 mg/kg/injection, schedule: Q04DX003 (ip), vehicle: saline with Tween-80 96 % of control

CCCCCCCCCCCCCCCCC1CCc2ccccc21 (configuration not stated)
inactive: dose: 50.0 mg/kg/injection, schedule: Q01DX001 (ip), vehicle: saline 101 % of control | [1] 101 % of control | [3] 98 % of control | [4] 101 % of control

CCCCC(=O)N1CCCC1
inactive: dose: 100.0 mg/kg/injection, schedule: Q04DX002 (ip), vehicle: saline 96 % of control | dose: 200.0 mg/kg/injection, schedule: Q04DX002 (ip), vehicle: saline 92 % of control | dose: 400.0 mg/kg/injection, schedule: Q04DX002 (ip), vehicle: saline 111 % of control

CC(C)(C)C1CCC(C(N)=O)CC1 (configuration not stated)
inactive: [13] 103 % of control | [14] 107 % of control | [15] 103 % of control

O=C1CC(=P(c2ccccc2)(c2ccccc2)c2ccccc2)C(=O)N1c1ccccc1
inactive: [16] 100 % of control | [6] 94 % of control | [17] 100 % of control | [13] 106 % of control | [7] 102 % of control | [18] 100 % of control | [14] 109 % of control | [8] 94 % of control | [15] 98 % of control

CCOC(=O)/C(=C\c1ccccc1)C(=O)c1ccccc1
inactive: [1] 97 % of control | [2] 97 % of control | [3] 93 % of control | [11] 92 % of control | [4] 88 % of control | [12] 101 % of control

CC(N)Cc1ccc(O)cc1 (configuration not stated)
inactive: dose: 25.0 mg/kg/injection, schedule: Q01DX009 (ip), vehicle: saline 108 % of control | dose: 25.0 mg/kg/injection, schedule: Q04DX003 (ip), vehicle: saline 100 % of control | dose: 50.0 mg/kg/injection, schedule: Q01DX009 (ip), vehicle: saline 103 % of control | dose: 50.0 mg/kg/injection, schedule: Q04DX003 (ip), vehicle: saline 94 % of control | [9] 101 % of control | [2] 96 % of control | [10] 93 % of control | [11] 100 % of control | [12] 94 % of control

CCN(CC)c1cc(C)c2cc(Cc3ccc4nc(N(CC)CC)cc(C)c4c3)ccc2n1
inactive: [1] 90 % of control | [3] 96 % of control | [4] 90 % of control

CCC(=O)O[C@H]1CC[C@H]2[C@@H]3CC[C@H]4CC(=O)[C@H](C)C[C@]4(C)[C@H]3CC[C@]12C
inactive: dose: 44.13 mg/kg/injection, schedule: Q01DX Z (sc), vehicle: steriod suspending solution 96 % of control | dose: 88.25 mg/kg/injection, schedule: Q01DX Z (sc), vehicle: steriod suspending solution 104 % of control | dose: 176.5 mg/kg/injection, schedule: Q01DX Z (sc), vehicle: steriod suspending solution 103 % of control | dose: 353.0 mg/kg/injection, schedule: Q01DX Z (sc), vehicle: steriod suspending solution 100 % of control

CC(C)(C)C(=O)CC(=O)C(C)(C)C.CC(C)(C)C(=O)CC(=O)C(C)(C)C.CC(C)(C)C(=O)CC(=O)C(C)(C)C.[Pr]
inactive: dose: 100.0 mg/kg/injection, schedule: Q01DX001 (ip), vehicle: saline with Tween-80 100 % of control | [17] 98 % of control | dose: 200.0 mg/kg/injection, schedule: Q01DX001 (ip), vehicle: saline with Tween-80 97 % of control | [18] 88 % of control | dose: 400.0 mg/kg/injection, schedule: Q01DX001 (ip), vehicle: saline with Tween-80 89 % of control

NNc1nc2ccccc2s1
inactive: dose: 6.25 mg/kg/injection, schedule: Q01DX009 (ip), vehicle: Klucel (hydroxypropylcellulose) (HPC) 90 % of control | dose: 12.5 mg/kg/injection, schedule: Q01DX009 (ip), vehicle: Klucel (hydroxypropylcellulose) (HPC) 100 % of control | dose: 25.0 mg/kg/injection, schedule: Q01DX009 (ip), vehicle: Klucel (hydroxypropylcellulose) (HPC) 94 % of control | dose: 50.0 mg/kg/injection, schedule: Q01DX009 (ip), vehicle: Klucel (hydroxypropylcellulose) (HPC) 91 % of control

Cc1ccc(C(C)C)cc1NC(=S)Nc1ccccc1
inactive: [13] 105 % of control | [14] 111 % of control | [15] 97 % of control

c1cc(C2OCCO2)cs1
inactive: [16] 86 % of control | [17] 86 % of control

CC(O)C(O)C1OC(=O)C1O (configuration not stated)
inactive: [9] 94 % of control and 98 % of control | [10] 100 % of control and 113 % of control | [5] 104 % of control and 94 % of control

CC1CC(=O)NN1C(O)c1ccc2c(c1)OCO2 (configuration not stated)
inactive: [13] 97 % of control | [14] 97 % of control

Nc1ncnc2c1nnn2C1CC(CO)C(O)C1O (configuration not stated)
inactive: dose: 50.0 mg/kg/injection, schedule: Q04DX003 (ip), vehicle: other 112 % of control | dose: 67.0 mg/kg/injection, schedule: Q01DX009 (ip), vehicle: saline with Tween-80 122 % of control | dose: 67.0 mg/kg/injection, schedule: Q04DX003 (ip), vehicle: other 106 % of control | [17] 118 % of control | dose: 100.0 mg/kg/injection, schedule: Q04DX003 (ip), vehicle: other 114 % of control | dose: 150.0 mg/kg/injection, schedule: Q01DX009 (ip), vehicle: saline with Tween-80 118 % of control | dose: 150.0 mg/kg/injection, schedule: Q04DX003 (ip), vehicle: other 111 % of control | dose: 200.0 mg/kg/injection, schedule: Q04DX003 (ip), vehicle: other 123 % of control

From PubChem BioAssay AID248 (DTP/NCI, 2004)
